Experimental data from ChEMBL document CHEMBL1158267, “Lycaconitine revisited: partial synthesis and neuronal nicotinic acetylcholine receptor affinities” (J Nat Prod, 1996).

Tests used:
[1] = Toxicity in iv dosed mouse; assay type: organism-based; conditions: in vivo
[2] = molecular target: Neuronal acetylcholine receptor; alpha4/beta2 (Rattus norvegicus, UniProt P09483+P12390); experiment: Displacement of [3H]cytisine from alpha4beta2 nAChR in rat brain membrane; assay type: cell membranes
[3] = molecular target: Neuronal acetylcholine receptor subunit alpha-7 (Rattus norvegicus, UniProt Q05941); experiment: Displacement of [125I]alpha-bungarotoxin from alpha7 nAChR in rat brain membrane; assay type: cell membranes
Neuronal acetylcholine receptor subunit alpha-7, sequence (Q05941 whole entry): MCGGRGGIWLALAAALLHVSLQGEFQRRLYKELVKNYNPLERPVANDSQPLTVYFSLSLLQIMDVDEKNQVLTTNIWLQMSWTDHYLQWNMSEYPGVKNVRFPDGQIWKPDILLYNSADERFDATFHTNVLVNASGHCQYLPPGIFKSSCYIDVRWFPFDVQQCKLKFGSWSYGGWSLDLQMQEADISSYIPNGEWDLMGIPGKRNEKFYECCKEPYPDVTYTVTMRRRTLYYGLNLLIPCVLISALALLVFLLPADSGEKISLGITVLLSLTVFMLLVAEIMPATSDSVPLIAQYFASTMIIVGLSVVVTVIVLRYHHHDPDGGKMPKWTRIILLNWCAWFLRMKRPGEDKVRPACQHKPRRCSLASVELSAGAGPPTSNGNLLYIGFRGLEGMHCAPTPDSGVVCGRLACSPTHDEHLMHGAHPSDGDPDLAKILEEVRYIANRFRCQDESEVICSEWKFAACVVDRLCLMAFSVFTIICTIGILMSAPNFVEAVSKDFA

Neuronal acetylcholine receptor; alpha4/beta2, sequence (P09483 whole entry): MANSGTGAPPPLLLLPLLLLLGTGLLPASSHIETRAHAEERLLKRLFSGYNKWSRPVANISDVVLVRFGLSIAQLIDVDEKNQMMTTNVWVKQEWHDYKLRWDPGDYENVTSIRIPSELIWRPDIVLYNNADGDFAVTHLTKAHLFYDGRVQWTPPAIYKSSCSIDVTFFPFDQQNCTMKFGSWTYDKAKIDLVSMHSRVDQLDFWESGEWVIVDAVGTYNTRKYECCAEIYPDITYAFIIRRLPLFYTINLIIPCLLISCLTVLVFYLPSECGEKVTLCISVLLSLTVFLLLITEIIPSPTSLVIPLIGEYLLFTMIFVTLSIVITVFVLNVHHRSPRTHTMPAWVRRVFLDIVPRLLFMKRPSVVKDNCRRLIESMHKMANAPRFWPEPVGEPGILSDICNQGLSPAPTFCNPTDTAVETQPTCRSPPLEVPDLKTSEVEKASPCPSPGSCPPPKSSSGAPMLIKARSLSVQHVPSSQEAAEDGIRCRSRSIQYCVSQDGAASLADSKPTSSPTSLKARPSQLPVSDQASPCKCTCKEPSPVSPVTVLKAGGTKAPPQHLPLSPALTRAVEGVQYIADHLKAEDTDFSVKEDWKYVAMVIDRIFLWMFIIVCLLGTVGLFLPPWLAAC
Neuronal acetylcholine receptor; alpha4/beta2, sequence (P12390 whole entry): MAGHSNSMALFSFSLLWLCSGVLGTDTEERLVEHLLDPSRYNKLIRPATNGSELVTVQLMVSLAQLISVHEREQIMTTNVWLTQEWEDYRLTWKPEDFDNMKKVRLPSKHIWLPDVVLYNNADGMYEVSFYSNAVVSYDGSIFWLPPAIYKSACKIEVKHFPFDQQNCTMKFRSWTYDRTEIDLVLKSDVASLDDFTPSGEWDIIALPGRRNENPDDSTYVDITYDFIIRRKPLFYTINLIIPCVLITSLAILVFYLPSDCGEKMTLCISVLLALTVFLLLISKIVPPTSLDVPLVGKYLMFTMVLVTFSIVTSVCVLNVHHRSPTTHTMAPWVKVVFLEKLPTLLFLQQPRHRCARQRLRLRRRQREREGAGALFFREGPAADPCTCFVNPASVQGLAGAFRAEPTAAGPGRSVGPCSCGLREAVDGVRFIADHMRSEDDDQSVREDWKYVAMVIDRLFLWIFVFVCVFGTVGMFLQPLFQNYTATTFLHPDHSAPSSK

Row | SMILES | LD50 [1] [mg/kg] | Ki [2] [nM] | Ki [3] [nM]
1 | CCN1C[C@]2(COC(=O)c3ccccc3N3C(=O)C[C@H](C)C3=O)CC[C@H](OC)[C@@]34[C@@H]5C[C@H]6[C@H](OC)[C@@H]5[C@](O)(C[C@@H]6OC)[C@](O)([C@@H](OC)[C@H]23)[C@@H]14 [METHYLLYCACONITINE] | 3 |  | 
2 | CCN1C[C@]2(COC(=O)c3ccccc3N3C(=O)CCC3=O)CC[C@H](OC)[C@]34C1[C@](O)([C@@H](OC)[C@H]23)[C@@]1(O)C[C@H](OC)[C@H]2C[C@@H]4[C@@H]1[C@H]2OC [LYCACONITINE] | 15 | 1000 | 80
